Measurements from patent US20230028293A1, “MULTIPLE MYELOMA COMBINATION THERAPIES BASED ON PROTEIN TRANSLATION INHIBITORS AND IMMUNOMODULATORS” (The Regents of the University of Colorado, a body corporate, priority 2019, published 2023).
“And” between values parts separate entries of the source, which are not always exact repeats. Equal values may be shown once. “Also recorded” adds a separate entry of the source.

Columns and labels:
[1] = tested on: U266, H929, MM1.S, MM1.R and RPMI-8226 MM cell lines; experiment: MM cell line proliferation / cytotoxicity assay (CellTiter-Glo or MTS); format: cell-based; settings: range over five MM cell lines, 96 h incubation; read-out: EC50 of inhibition of cell proliferation
Description: Omacetaxine was tested in MM cell lines in vitro and in MM patient bone marrow aspirates ex vivo. The reported cytotoxicity of omacetaxine was verified in cell culture using the U266, H929, MM1.S, MM1.R and RPMI-8226 MM cell lines. […] In a timecourse study, omacetaxine-mediated induction of apoptosis started at 2 h, and cell death began after 24 h (FIGS. 1B, 1C, and 2A).
Either CellTiter-Glo Luminescent Cell Viability or CellTiter 96 AQueous MTS Cell Proliferation assay (Promega, Madison Wis.) were used to generate dose response curves of myeloma cell line proliferation treated with various anti-myeloma agents. Working solutions of CellTiter-Glo or CellTiter AQueous reagent were prepared per manufacturer instructions. Cells were combined with drug of interest at a concentration of 50,000 cells/well and incubated in 96-well culture plates at 37° C. for 96 h. After the incubation, the viability or proliferation results were obtained via Vmax Kinetic Microplate Reader (Molecular Devices, Sunnyvale Calif.). Cell line toxicity was also measured using high throughput flow cytometry.

[2] = tested on: MM1.S cells; experiment: Timecourse of apoptosis and cell death by Annexin V and DAPI flow cytometry; format: cell-based
Text: FIG. 2A depicts the timecourse of induction of apoptosis and cell death by omacetaxine in MM1.S cells as measured by Annexin V and DAPI staining by flow cytometry.
FIG. 10A depicts the timecourse of induction of apoptosis and cell death by pomalidomide in MM1.S cells as measured by annexin V and DAPI staining by flow cytometry.

[3] = tested on: MM cell lines (H929, MM.1S, U266); experiment: Seahorse glycolysis stress test (ECAR); format: cell-based; settings: after 4 h
Description: MM cell lines were incubated with pomalidomide for 24 h, omacetaxine for 4 h, or in staggered combination. The cells were washed and resuspended in Agilent Seahorse XF DMEM Medium, pH 7.4 (Agilent Technologies, Santa Clara, Calif.). Glycolytic flux, extracellular acidification rate (ECAR) was measured on a Seahorse XFe96 Analyzer using the Seahorse XF Glycolysis Stress Test Kit according to manufacture instructions (Agilent Technologies).

[4] = tested on: c-MYC; experiment: Quantitative flow cytometry of c-MYC antigen density; format: cell-based; settings: 24 h treatment
[5] = tested on: IMiD-resistant relapsed MM patient sample; experiment: Two-drug combination matrix in primary MM patient sample, ZIP synergy; format: cell-based, human
Description: Drug combination studies were set up using a full matrix design with myeloma cell lines or primary samples. Synergy was calculated using ZIP delta score via the SnergyFinder online tool (synergyfinder.fimm.fi). Combination index values were calculated using the CompuSyn software (ComboSyn Inc).

[6] = tested on: MM1.S cells; experiment: Whole cell proteomics of treated MM cells; format: cell-based; settings: omacetaxine 4 h, pomalidomide 24 h, staggered combination
Description: Whole cell proteomics of MM cells treated with the omacetaxine/pomalidomide combination were compared to single agent treatments at a timepoint before substantial apoptosis or cell death began. Although omacetaxine is rapidly cytotoxic to MM cells, the cytotoxicity of pomalidomide occurs after a longer delay, with apoptosis and cell death beginning at 24 h (FIG. 10A). […] For proteomics, MM1.S cells were treated in triplicate with omacetaxine for 4 h, pomalidomide for 24 h, or the staggered combination treatment and compared to untreated controls.
Cells were lysed with RIPA buffer (Thermo Fisher Scientific) and digested according to the FASP protocol. Recovered peptides were dried, desalted, and concentrated on Thermo Scientific Pierce C18 Tips. Cell lysates were analyzed using an Orbitrap Fusion mass spectrometer connected to an EASY-nLC 1200 system (Thermo Fisher Scientific) with a nanoelectrospray ion source. Data was acquired using the Xcaliburm (version 4.1) software. MS/MS spectra were extracted, and Proteome Discoverer Software (ver. 2.1.0.62) was used to convert the raw data into mgf files. The files were then searched against a human database using an in-house Mascot server (Version 2.6, Matrix Science). Scaffold (version 4.8, Proteome Software, Portland, Oreg.) was used to validate MS/MS based peptide and protein identifications. […]

[7] = tested on: bone marrow plasma cells from normal donors; experiment: Sensitivity of healthy donor bone marrow plasma cells; format: cell-based; settings: 50 nM, 48 h incubation
[8] = tested on: MM cell lines; experiment: Two-drug combination matrix in MM cell lines, ZIP synergy; format: cell-based

Which EC50 [1] does the source give for `COC(=O)C[C@](O)(CCCC(C)(C)O)C(=O)O[C@@H]1C(OC)=C[C@]23CCCN2CCc2cc4c(cc2[C@H]13)OCO4` [omacetaxine, Omacetaxine mepesuccinate] here?
The EC50 was 15 to 35 nM.

What about the “time at which cell death began” value [2] of the same compound?
Its value is 24 h.

And the “time at which induction of apoptosis started” value [2]?
The value was 2 h.

What about the “effect on metabolism of myeloma cell lines (Seahorse, ECAR)” value [3] of the same compound?
Its value is “shut down metabolism”.

And the “c-MYC protein level in MM cell lines” value [4]?
Its value is “decreases”.

What about the “effect of combination with Pom on IMiD sensitivity of patient MM cells” value ([5]; IMiD-resistant relapsed patient sample) of the same compound?
The value was “re-sensitized”.

And the “ZIP δ-score for synergy with Pom in patient sample” value ([5]; IMiD-resistant relapsed patient sample HTB-576)?
Its value is 22.68 and 22.7.

What about the “proteins among the most downregulated versus untreated controls” value [6] of the same compound?
The value was “IGL1 and JCHAIN”.

What about the “cytotoxicity to normal plasma cells” value [7] of the same compound?
Its value is “cytotoxic”.

What about the “synergy with CC-220” value ([8]; H929 cells) of the same compound?
Its value is “synergistic”.

What about the combination with dexamethasone ([8]; MM.1S cells) of the same compound?
Its combination with dexamethasone is “synergistic”.

And the “ZIP δ-score for synergy with Len” value ([8]; combination with lenalidomide, MM.1S cells, 96 h)?
The value was 13.89.

And the “ZIP δ-score for synergy with Pom” value ([8]; omacetaxine with pomalidomide, MM.1S cells, 96 h)?
Its value is 11.24.

And the “synergy with the PI bortezomib” value ([8]; three MM cell lines (U266, MM.1S, H929))?
Its value is “lack of synergy; also recorded: no significant enhanced activity”.
